Test [1] concerns the target Human cGAS amino acids 155-522 (Homo sapiens (Human), UniProt Q8N884). In words: cGAS biochemical activity assay (ATP remaining, Kinase-Glo Max luminescence). To be noted: human cGAS 155-522, ATP remaining (Kinase-Glo Max); read-out: cGAS IC50. (Kinase-Glo measures the ATP left after a reaction by luminescence.)
For test [2], the system named is cGAS/STING pathway in THP1 cells. In words: THP1 cell-based cGAS/STING pathway activity assay (IRF-3-linked luciferase reporter). As to conditions: Homo sapiens, THP-1. The method in brief:
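THP1 cells carrying an IRF-3-driven luciferase reporter were read across a range of compound concentrations, and IC50 values were derived from these concentration responses; the assay upper limit was 100 μM.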

Some results are limits rather than exact numbers.

A word on the IC50: it is the concentration that inhibits the measured activity by half.

Human cGAS amino acids 155-522, sequence (Q8N884 157-522): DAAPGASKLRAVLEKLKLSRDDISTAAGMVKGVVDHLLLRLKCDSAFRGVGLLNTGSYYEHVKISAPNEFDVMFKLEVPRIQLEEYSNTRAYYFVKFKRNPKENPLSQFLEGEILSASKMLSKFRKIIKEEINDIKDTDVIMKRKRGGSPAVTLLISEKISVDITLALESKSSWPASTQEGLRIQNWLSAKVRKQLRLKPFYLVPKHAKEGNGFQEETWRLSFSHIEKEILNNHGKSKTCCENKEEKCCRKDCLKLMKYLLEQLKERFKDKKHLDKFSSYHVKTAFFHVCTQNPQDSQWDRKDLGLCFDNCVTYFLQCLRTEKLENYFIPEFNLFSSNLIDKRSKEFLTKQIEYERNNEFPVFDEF

As for `C=Cc1nn2c(=O)c(-c3nc4c(OC)cccc4o3)c(C)[nH]c2c1-c1ccccc1` [Compound C1241, 6-(4-methoxybenzo[d]oxazol-2-yl)-5-methyl-3-phenyl-2-vinylpyrazolo[1,5-a]pyrimidin-7(4H)-one], the concentration for half-maximal inhibition (IC50) in test [1] and in test [2] was less than 20 µM throughout.

Regarding `COCCOCc1[nH]c2c(-c3ccccc3)c(C#N)nn2c(=O)c1-c1nc2c(OC)cccc2o1` [Compound C1243, 6-(4-methoxybenzo[d]oxazol-2-yl)-5-((2-methoxyethoxy)methyl)-7-oxo-3-phenyl-4,7-dihydropyrazolo[1,5-a]pyrimidine-2-carbonitrile], the IC50 in test [1] and in test [2] was less than 20 µM throughout.

On to `COc1cccc2oc(-c3c(C(=O)Nc4cn[nH]c4)[nH]c4c(-c5ccccc5)c(C(F)(F)F)nn4c3=O)nc12` [Compound C1244, 6-(4-methoxybenzo[d]oxazol-2-yl)-7-oxo-3-phenyl-N-(1H-pyrazol-4-yl)-2-(trifluoromethyl)-4,7-dihydropyrazolo[1,5-a]pyrimidine-5-carboxamide], for which the IC50 in test [1] and in test [2] was less than 20 µM in each case.

On to `COc1cccc2oc(-c3c(C(=O)NCc4cc[nH]n4)[nH]c4c(-c5ccccc5)c(C(F)(F)F)nn4c3=O)nc12` [Compound C1245, N-((1H-pyrazol-3-yl)methyl)-6-(4-methoxybenzo[d]oxazol-2-yl)-7-oxo-3-phenyl-2-(trifluoromethyl)-4,7-dihydropyrazolo[1,5-a]pyrimidine-5-carboxamide], for which the results for the IC50 in test [1] and in test [2] were less than 20 µM and greater than 100 µM, respectively.

For the compound `COCc1[nH]c2c(-c3ccccc3)c(C#N)nn2c(=O)c1-c1nc2c(OC)nccc2o1` [Compound C1246, 5-(methoxymethyl)-6-(4-methoxyoxazolo[4,5-c]pyridin-2-yl)-7-oxo-3-phenyl-4,7-dihydropyrazolo[1,5-a]pyrimidine-2-carbonitrile], the results for the IC50 in test [1] and in test [2] were less than 20 µM and greater than 100 µM, respectively.

With `COc1cccc2oc(-c3c(COCCO)[nH]c4c(-c5ccccc5)c(C#N)nn4c3=O)nc12` [Compound C1248, 5-((2-hydroxyethoxy)methyl)-6-(4-methoxybenzo[d]oxazol-2-yl)-7-oxo-3-phenyl-4,7-dihydropyrazolo[1,5-a]pyrimidine-2-carbonitrile], the IC50 is less than 20 µM in test [1] and greater than 100 µM in test [2].

For the compound `COc1cccc2oc(-c3c(C(=O)O)[nH]c4c(-c5ccccc5)c(C#N)nn4c3=O)nc12` [Compound C1249, 2-cyano-6-(4-methoxybenzo[d]oxazol-2-yl)-7-oxo-3-phenyl-4,7-dihydropyrazolo[1,5-a]pyrimidine-5-carboxylic acid], the IC50 was less than 20 µM in test [1] and greater than 100 µM in test [2].

With `COc1c(N)ccc2oc(-c3c(C)[nH]c4c(-c5ccccc5)c(C#N)nn4c3=O)nc12` [Compound C1250, 6-(5-amino-4-methoxybenzo[d]oxazol-2-yl)-5-methyl-7-oxo-3-phenyl-4,7-dihydropyrazolo[1,5-a]pyrimidine-2-carbonitrile], the half-inhibitory concentration (IC50) in test [1] is less than 20 µM; in test [2] it was greater than 100 µM.

With `COc1cccc2oc(-c3c(COCC4CNC(=O)O4)[nH]c4c(-c5ccccc5)c(C#N)nn4c3=O)nc12` (centres unmarked) [Compound C1251, 6-(4-methoxybenzo[d]oxazol-2-yl)-7-oxo-5-(((2-oxooxazolidin-5-yl)methoxy)methyl)-3-phenyl-4,7-dihydropyrazolo[1,5-a]pyrimidine-2-carbonitrile], the IC50 in test [1] was less than 20 µM; in test [2], greater than 100 µM.

With `COc1cccc2oc(-c3c(C4CC(C(=O)O)C4)[nH]c4c(-c5ccccc5)c(C(F)(F)F)nn4c3=O)nc12` (centres unmarked) [Compound C1252, 3-(6-(4-methoxybenzo[d]oxazol-2-yl)-7-oxo-3-phenyl-2-(trifluoromethyl)-4,7-dihydropyrazolo[1,5-a]pyrimidin-5-yl)cyclobutane-1-carboxylic acid], the IC50 was less than 20 µM in test [1] and greater than 100 µM in test [2].

The record behind these values is US10738056B2 (Aduro BioTech, Inc., priority 2017, dated 2020).
